Laboratory results taken from ChEMBL document CHEMBL1201862, “PubChem BioAssay data set” (2004).
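Step 1: Grow cells in 96-well plates. Step 2: Expose to compound for 48 hours at 5 concentrations. Step 3: Interpolate endpoints linearly; if unreached, use highest concentration. The concentration for 50% growth inhibition is given as GI50.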 Active and inactive are the calls of the source. No stated cut-off is given here; in the data, active = GI50 up to about 1.1 µM and inactive = higher.

Columns and labels:
Assay in all cases: NCI tumour cell line growth inhibition, 48 h
U-251 = test system: U-251
HCC 2998 = test system: HCC 2998
TK-10 = test system: TK-10
SK-MEL-28 = test system: SK-MEL-28
CCRF-CEM = test system: CCRF-CEM
SF-295 = test system: SF-295
SNB-75 = test system: SNB-75
UACC-62 = test system: UACC-62
OVCAR-3 = test system: OVCAR-3
K562 = test system: K562
M14 = test system: M14
A549 = test system: A549
HL-60 = test system: HL-60
HOP-92 = test system: HOP-92
OVCAR-4 = test system: OVCAR-4
CAKI-1 = test system: CAKI-1
OVCAR-8 = test system: OVCAR-8
NCI-H226 = test system: NCI-H226
COLO 205 = test system: COLO 205

| Structure (SMILES) | GI50 (U-251) | GI50 (HCC 2998) | GI50 (TK-10) | GI50 (SK-MEL-28) | GI50 (CCRF-CEM) | GI50 (SF-295) | GI50 (SNB-75) | GI50 (UACC-62) | GI50 (OVCAR-3) | GI50 (K562) | GI50 (M14) | GI50 (A549) | GI50 (HL-60) | GI50 (HOP-92) | GI50 (OVCAR-4) | GI50 (CAKI-1) | GI50 (OVCAR-8) | GI50 (NCI-H226) | GI50 (COLO 205) |
| --- | --- | --- | --- | --- | --- | --- | --- | --- | --- | --- | --- | --- | --- | --- | --- | --- | --- | --- | --- |
| Cc1ccc([N+](=O)[O-])cc1NC(=O)/C(CC(=O)c1sc(C(N)=S)nc1C)=N\N | 32.1 µM (inactive) | > 100 µM (inactive) | > 100 µM (inactive) | > 100 µM (inactive) | 26.9 µM (inactive) | 75.7 µM (inactive) | > 100 µM (inactive) | > 100 µM (inactive) | 26.9 µM (inactive) | 41.4 µM (inactive) | > 100 µM (inactive) | 46.2 µM (inactive) | 43.9 µM (inactive) | 62.8 µM (inactive) | 31.6 µM (inactive) | > 100 µM (inactive) | > 100 µM (inactive) | – | – |
| CCOC(=O)c1[nH]c2cc(OC)c(OC)cc2c1CN(C)C | > 100 µM (inactive) | > 100 µM (inactive) | > 100 µM (inactive) | > 100 µM (inactive) | > 100 µM (inactive) | > 100 µM (inactive) | 67 µM (inactive) | > 100 µM (inactive) | – | > 100 µM (inactive) | > 100 µM (inactive) | > 100 µM (inactive) | > 100 µM (inactive) | > 100 µM (inactive) | > 100 µM (inactive) | > 100 µM (inactive) | > 100 µM (inactive) | > 100 µM (inactive) | – |
| COc1cc2cccc(/N=C\c3ccccc3Cl)c2cc1OC | 95.9 µM (inactive) | > 100 µM (inactive) | > 100 µM (inactive) | > 100 µM (inactive) | 22.8 µM (inactive) | 69 µM (inactive) | > 100 µM (inactive) | 66.5 µM (inactive) | > 100 µM (inactive) | 4.8 µM (inactive) | > 100 µM (inactive) | > 100 µM (inactive) | 4.48 µM (inactive) | > 100 µM (inactive) | > 100 µM (inactive) | > 100 µM (inactive) | > 100 µM (inactive) | > 100 µM (inactive) | > 100 µM (inactive) |
| C/C(CC(=O)NC1=CC=C(NC(=O)C/C(C)=N\Nc2ccccc2)CC1)=N/Nc1ccccc1 | > 100 µM (inactive) | > 100 µM (inactive) | > 100 µM (inactive) | > 100 µM (inactive) | > 100 µM (inactive) | > 100 µM (inactive) | > 100 µM (inactive) | > 100 µM (inactive) | > 100 µM (inactive) | 75.7 µM (inactive) | > 100 µM (inactive) | > 100 µM (inactive) | 50.1 µM (inactive) | > 100 µM (inactive) | > 100 µM (inactive) | > 100 µM (inactive) | > 100 µM (inactive) | > 100 µM (inactive) | 27.1 µM (inactive) |
| CC(=O)c1ccc(NC(=O)C(=O)Nn2c(S)nc3ccccc3c2=O)cc1 | > 100 µM (inactive) | > 100 µM (inactive) | > 100 µM (inactive) | > 100 µM (inactive) | – | > 100 µM (inactive) | > 100 µM (inactive) | > 100 µM (inactive) | > 100 µM (inactive) | > 100 µM (inactive) | > 100 µM (inactive) | > 100 µM (inactive) | > 100 µM (inactive) | > 100 µM (inactive) | > 100 µM (inactive) | > 100 µM (inactive) | > 100 µM (inactive) | > 100 µM (inactive) | > 100 µM (inactive) |
| O=C(/C=C/c1ccccc1)NC1C=Nc2ccc([N+](=O)[O-])cc2NC1=O (configuration not stated) | > 100 µM (inactive) | 34.8 µM (inactive) | > 100 µM (inactive) | > 100 µM (inactive) | 17.4 µM (inactive) | 30.3 µM (inactive) | > 100 µM (inactive) | 44.1 µM (inactive) | 80.5 µM (inactive) | 27 µM (inactive) | 52.8 µM (inactive) | > 100 µM (inactive) | 25.3 µM (inactive) | > 100 µM (inactive) | > 100 µM (inactive) | > 100 µM (inactive) | > 100 µM (inactive) | > 100 µM (inactive) | 29 µM (inactive) |
| N#Cc1nc(C2OC(COC(=O)c3ccccc3)C(OC(=O)c3ccccc3)C2OC(=O)c2ccccc2)oc1N (configuration not stated) | 32.5 µM (inactive) | 35.6 µM (inactive) | 63.5 µM (inactive) | 31 µM (inactive) | 3.18 µM (inactive) | 39.2 µM (inactive) | 11.3 µM (inactive) | 38.7 µM (inactive) | 34.1 µM (inactive) | 6.12 µM (inactive) | 89.7 µM (inactive) | 26.4 µM (inactive) | 7.03 µM (inactive) | 96.4 µM (inactive) | 10.8 µM (inactive) | 26.5 µM (inactive) | 46.1 µM (inactive) | 14.2 µM (inactive) | 61.4 µM (inactive) |
| C=C[C@]1(C)CCC2=C(CCC3C2(C)CCC[C@]3(C)CO)C1 (some centres not stated) | 26.9 µM (inactive) | 43.7 µM (inactive) | > 100 µM (inactive) | > 100 µM (inactive) | 33 µM (inactive) | 43.6 µM (inactive) | 61.5 µM (inactive) | 76.9 µM (inactive) | 40 µM (inactive) | 34.8 µM (inactive) | 75.5 µM (inactive) | 40.6 µM (inactive) | 27.9 µM (inactive) | 43.1 µM (inactive) | > 100 µM (inactive) | 76 µM (inactive) | 60.5 µM (inactive) | 41.2 µM (inactive) | 38.4 µM (inactive) |
| O=C(Cc1ccccc1)N/N=C(/c1nc2ccc([N+](=O)[O-])cc2nc1O)C(O)c1ccc(C(O)/C(=N/NC(=O)Cc2ccccc2)c2nc3ccc([N+](=O)[O-])cc3nc2O)cc1 (configuration not stated) | – | 27 µM (inactive) | 48.1 µM (inactive) | > 100 µM (inactive) | 7.26 µM (inactive) | 44.9 µM (inactive) | 31.3 µM (inactive) | 35.6 µM (inactive) | 20.7 µM (inactive) | 12.4 µM (inactive) | 40.6 µM (inactive) | 50.9 µM (inactive) | 7.01 µM (inactive) | > 100 µM (inactive) | > 100 µM (inactive) | 40.1 µM (inactive) | 80.4 µM (inactive) | > 100 µM (inactive) | 37.5 µM (inactive) |
| N#CCc1ccc(C(C#N)/C(CCCC(=O)Nc2cccc([N+](=O)[O-])c2)=N\NC(=O)NN)cc1 (configuration not stated) | > 100 µM (inactive) | > 100 µM (inactive) | > 100 µM (inactive) | > 100 µM (inactive) | > 100 µM (inactive) | > 100 µM (inactive) | > 100 µM (inactive) | > 100 µM (inactive) | > 100 µM (inactive) | > 100 µM (inactive) | > 100 µM (inactive) | > 100 µM (inactive) | > 100 µM (inactive) | > 100 µM (inactive) | > 100 µM (inactive) | > 100 µM (inactive) | > 100 µM (inactive) | > 100 µM (inactive) | > 100 µM (inactive) |
| CCOC(=O)N1N=NC2C3OC(C[C@@]3(C#N)OC(C)=O)[C@H]21 (some centres not stated) | > 100 µM (inactive) | > 100 µM (inactive) | > 100 µM (inactive) | > 100 µM (inactive) | > 100 µM (inactive) | > 100 µM (inactive) | > 100 µM (inactive) | > 100 µM (inactive) | > 100 µM (inactive) | > 100 µM (inactive) | > 100 µM (inactive) | > 100 µM (inactive) | > 100 µM (inactive) | > 100 µM (inactive) | > 100 µM (inactive) | > 100 µM (inactive) | > 100 µM (inactive) | > 100 µM (inactive) | > 100 µM (inactive) |
| O=C(/C=C\c1ccccc1O)c1ccc(O)cc1O | > 100 µM (inactive) | > 100 µM (inactive) | > 100 µM (inactive) | > 100 µM (inactive) | 87.7 µM (inactive) | > 100 µM (inactive) | 0.0128 µM (active) | > 100 µM (inactive) | > 100 µM (inactive) | > 100 µM (inactive) | > 100 µM (inactive) | > 100 µM (inactive) | 81.8 µM (inactive) | > 100 µM (inactive) | 54.6 µM (inactive) | > 100 µM (inactive) | > 100 µM (inactive) | > 100 µM (inactive) | 28.6 µM (inactive) |
| C=C=C(Sc1ccccc1)C(C)(C)O | > 100 µM (inactive) | > 100 µM (inactive) | > 100 µM (inactive) | > 100 µM (inactive) | > 100 µM (inactive) | > 100 µM (inactive) | 38.6 µM (inactive) | > 100 µM (inactive) | > 100 µM (inactive) | > 100 µM (inactive) | > 100 µM (inactive) | – | > 100 µM (inactive) | > 100 µM (inactive) | > 100 µM (inactive) | – | > 100 µM (inactive) | > 100 µM (inactive) | > 100 µM (inactive) |
| Cc1occ2c1C(=O)CC1C2[C@@H](O)CC2C(C)(C)CCC[C@]12C (some centres not stated) | 94.8 µM (inactive) | > 100 µM (inactive) | – | > 100 µM (inactive) | 42.7 µM (inactive) | > 100 µM (inactive) | > 100 µM (inactive) | 95.7 µM (inactive) | – | > 100 µM (inactive) | > 100 µM (inactive) | > 100 µM (inactive) | 44.7 µM (inactive) | > 100 µM (inactive) | 98.9 µM (inactive) | – | > 100 µM (inactive) | > 100 µM (inactive) | > 100 µM (inactive) |
| CC(=O)c1cccc(NC(=O)/C(=N\NC(C)(C)C)c2c(O)c3ccccc3oc2=O)c1 | – | > 100 µM (inactive) | > 100 µM (inactive) | > 100 µM (inactive) | > 100 µM (inactive) | > 100 µM (inactive) | 39.2 µM (inactive) | > 100 µM (inactive) | > 100 µM (inactive) | – | > 100 µM (inactive) | > 100 µM (inactive) | > 100 µM (inactive) | > 100 µM (inactive) | > 100 µM (inactive) | > 100 µM (inactive) | > 100 µM (inactive) | > 100 µM (inactive) | > 100 µM (inactive) |
